Consider 24 compounds from patent EP1039902B1, “INHIBITORS OF GAP JUNCTION COMMUNICATION” (THE SCRIPPS RESEARCH INSTITUTE, priority 1997, dated 1999).

One assay deals with rat glial cell gap junction. In words: Gap junction dye coupling assay (Lucifer yellow dye transfer; microinjection or scrape loading). Type of assay: cell-based. To be noted: 50 µM. The procedure: Rat glial cells (Suter et al., 1987) obtained from Dr. Trosko's laboratory were cultured in standard plastic tissue cultureware in Richter's Improved Minimal Essential Medium (Irvine Scientific, Santa Ana, CA), supplemented with 10% fetal calf serum and 50 µg/ml gentamicin sulfate, and incubated in a humidified atmosphere of 95% air/5% CO2 at 37°C. The cells were passaged by trypsinization and used at passages 4-8. BHK (baby hamster kidney) cells that were stably transfected with a β1 connexin cDNA (Kumar et al., 1995) were cultured in DMEM medium supplemented with 5% fetal calf serum and 50 µg/ml gentamicin sulfate, and incubated in a humidified atmosphere of 95% air/5% CO2 at 37° C. In order to induce β1 connexin expression in the BHK cells, 100 µM zinc acetate was added to culture medium for 8-18 hours when the cell culture was about 90% confluent.
Gap junctional communication in glial cell and BHK/β1 cell cultures was assayed by microinjection of 5% Lucifer yellow CH dye in 0.1 M LiCl solution, and quantitated by determining the number of directly adjacent, neighboring cells that received dye (dye-coupling). Micropipettes were loaded with the dye solution by backfilling. Cells were visualized using a Nikon Diaphot inverted phase contrast/ epifluorescent microscope, and impaled with dye-filled micropipettes using an Eppendorf microinjector (model 5246). Five minutes after dye-injection, the transfer of dye to directly adjacent cells was determined using epifluorescent illumination. For each treatment condition, ten cells were microinjected in each of three dishes, the total number of dye-coupled neighboring cells was calculated and compared to determine the % dye-coupling. For scrape loading measurements, Lucifer yellow CH (0.05% dye in PBS) was loaded intracellularly by cutting or scraping cells in the monolayer with a sharp knife. The dye solution was left in the dish for 90 seconds, then the solution was discarded, and the dish subsequently washed with PBS. The cells were examined for dye transfer with an inverted epifluorescence microscope, and the degree of communication was assessed by determining the extent of Lucifer yellow transfer into contiguous cells.
For `NC(=O)CCCCCCC/C=C\CCCCCCCC(=O)O` [carboxylic acid], the “inhibition of gap junction-mediated dye transfer” value is given as “no gap junction inhibition”.

For the compound `NC(=O)CCCCCCC/C=C\CCCCCCCCO` [terminal alcohol, 18-hydroxyoleamide], the “inhibition of gap junction-mediated dye transfer” value is on record as “no gap junction inhibition”.

For `CCCCCCCCC/C=C\CCCCCCC(N)=O` [cis-8-octadecenamide], the “inhibition of gap junction-mediated dye transfer” value is reported as “significant inhibitors”.

The same assay, now with this note: comparison in words.
For `CCCCC/C=C\C/C=C\C/C=C\C/C=C\CCCC(N)=O` [arachidonamide], the “potency of gap junction inhibition relative to oleamide” value is “not quite as potent as oleamide”.

On to `CCCCCCCCC#CCCCCCCCC(N)=O` [compound 2, 9-octadecynamide], for which the “potency of gap junction inhibition relative to oleamide” value is listed as “only slightly less active than oleamide”.

`CCCCCCCCC/C=C\CCCCCCC(N)=O` [cis-8-octadecenamide]: the “potency of gap junction inhibition relative to oleamide” value is on record as “less potent than oleamide at lower doses”.

In the case of `CCCCC/C=C\C/C=C\CCCCCCCC(N)=O` [linoleamide, Linoleamide], the “potency of gap junction inhibition relative to oleamide” value was “lower than oleamide”.

Still in this assay, the particulars now being: result in words, concentration not given; listed as octadecanamide.
`CCCCCCCCCCCCCCCCCC(N)=O` [18:0, stearamide]: the “inhibition of gap junction-mediated dye transfer” value is “ineffective”.

The same assay, now with this note: result in words, concentration not stated at the place.
As for `CCCCCCCC/C=C\CCCCCCCC(=O)OCC` [ethyl oleate], the “inhibition of gap junction-mediated dye transfer” value is listed as “progressively reduced effectiveness”.

On to `CCCCCCCC/C=C\CCCCCCCC(=O)NCCCO` [oleyl propanolamide], for which the “inhibition of gap junction-mediated dye transfer” value is given as “comparable properties”.

Take `CCCCC/C=C\C/C=C\C/C=C\C/C=C\CCCC(N)=O` [arachidonamide]: the “inhibition of gap junction-mediated dye transfer” value was “effective inhibitor”.

For `CCCCCCCC/C=C\CCCCCCCC(=O)N(C)OC` [MeONMe], the “inhibition of gap junction-mediated dye transfer” value is “most potent of the agents examined”.

As for `CCCCCCCCCCCCCCCCCC(N)=O` [18:0, stearamide], the “inhibition of gap junction-mediated dye transfer” value is listed as “no observable inhibition”.

As for `CCCCCCCC/C=C\CCCCCCC(O)C(N)=O` (stereo not drawn) [α-hydroxy oleamide, 2-hydroxy-9Z-octadecenamide], the “inhibition of gap junction-mediated dye transfer” value was “effective inhibitors”.

Take `CCCCCCCC/C=C\CCCCCCCC(=O)OC[C@H](CO)OC(C)=O` [(2S)-1-oleoyl-2-acetylglycerol, reference compound]: the “inhibition of gap junction-mediated dye transfer” value is listed as “not inhibitors”.

For `CCCCCCCC/C=C\CCCCCCCC(=O)CCl` [ClCH2], the “inhibition of gap junction-mediated dye transfer” value is on record as “substantially less effective”.

Regarding `CCCC/C=C\CCCCCCCC(N)=O` [14:1^9, Myristoleamide], the “inhibition of gap junction-mediated dye transfer” value is recorded as “loss of activity”.

With `CCCCCC/C=C\CCCCCCCC(N)=O` [palmitoleamide, Palmitoleamide], the “inhibition of gap junction-mediated dye transfer” value is on record as “potent activity”.

`CCCCCCCC/C=C\CCCCCCCC(=O)N(C)CC(=O)O` [N-oleoyl sarcosine]: the “inhibition of gap junction-mediated dye transfer” value is “effective inhibitors”.

As for `CCCCCCCC/C=C\CCCCCCCC(=O)NCC(=O)OCC` [N-oleoyl glycine ethyl ester], the “inhibition of gap junction-mediated dye transfer” value was “effective, albeit slightly less potent, inhibitor”.

As to `CCCCCCCCC#CCCCCCCCC(N)=O` [compound 2, 9-octadecynamide], the “inhibition of gap junction-mediated dye transfer” value is reported as “potent inhibitor”.

Consider `CCCCCCCC/C=C\CCCCCCC(C)(C)C(N)=O` [α,α-dimethyl oleamide], for which the “inhibition of gap junction-mediated dye transfer” value is recorded as “potent inhibitors”.

Turning to `CCCCCCCC/C=C\CCCCCCCCOC(C)=O` [oleyl acetate, Oleyl acetate], the “inhibition of gap junction-mediated dye transfer” value is “progressively reduced effectiveness”.

For `CCCCCCCC/C=C\CCCCCCCCO` [oleyl alcohol, Oleyl alcohol], the “inhibition of gap junction-mediated dye transfer” value is reported as “progressively reduced effectiveness”.

`CCCCCCCC/C=C\CCCCCCCC(=O)NCC(N)=O` [N-oleoyl glycinamide]: the “inhibition of gap junction-mediated dye transfer” value is given as “ineffective”.

As to `CCCCCCCC/C=C\CCCCCCC(S)C(N)=O` (stereo not shown) [CHSH], the “inhibition of gap junction-mediated dye transfer” value is on record as “ineffective”.

In the case of `CCCCCCCC/C=C\CCCCCCC(C)C(N)=O` (stereo not drawn) [α-methyl oleamide], the “inhibition of gap junction-mediated dye transfer” value was “potent inhibitors”.

Take `COCCCCCCCC/C=C\CCCCCCCC(N)=O` [CH2OCH3]: the “inhibition of gap junction-mediated dye transfer” value is listed as “did not effect the gap junction inhibition”.
